Data published in patent US20240239788A1, “SMALL MOLECULE INHIBITORS OF KRAS G12D MUTANT” (Merck Sharp & Dohme LLC, priority 2021, published 2024).
Counter-ions that a name gives are not always drawn.

How the values were obtained:
[1] = system: AsPC-1 cells containing homozygous KRAS-G12D activating mutation; assay: Cellular phospho-ERK assay (Examples 1a-106); type: cell-based; settings: AsPC-1 cells, 2 hours, ratio of p-Erk vs total Erk, read-out: IC50 (nM) pERK (Cell)
Source text: 5% CO? overnight. […] Assay plates were read on a EnVision Multimode Plate Reader (PerkinElmer) and the ratio of p-Erk vs total Erk in each well was used as the final readout.

[2] = target: KRAS protein containing G12D mutation (Homo sapiens (Human), UniProt P01116, G12D); assay: SOS-catalyzed nucleotide exchange assay (GNE), TR-FRET; type: biochemical; settings: biotinylated KRAS G12D, SOS and GTP, 60-minute incubation
Chain of KRAS protein containing G12D mutation (P01116 other isoform, or with tags, fused parts or gaps G12D (already in the parent)): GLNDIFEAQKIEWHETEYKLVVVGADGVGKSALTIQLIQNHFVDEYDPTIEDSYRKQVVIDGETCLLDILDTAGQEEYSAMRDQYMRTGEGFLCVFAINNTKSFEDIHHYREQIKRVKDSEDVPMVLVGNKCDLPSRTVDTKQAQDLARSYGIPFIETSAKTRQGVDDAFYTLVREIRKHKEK
Method: Compounds are added to this complex and then after a 60-minute incubation time the mixture is treated with SOS and unlabeled GTP. Small molecule inhibitors stabilize the Bodipy-GDP complex whereas the untreated protein rapidly exchanges Bodipy-GDP for unlabeled GTP resulting in reduced TR-FRET signal.
This solution is referred to as biotinylated KRAS G12D stock solution.

[3] = system: AsPC-1 cells containing homozygous KRAS-G12D activating mutation; assay: Cellular phospho-ERK assay with 10% FBS (Examples 107a-256); type: cell-based
Method: 5% CO2 for 2 hours. […] Assay plates were read on a EnVision Multimode Plate Reader (PerkinElmer) and the ratio of p-Erk vs total Erk in each well was used as the final readout.

[4] = Homo sapiens, ASPC1, 2 h, read-out: IC50 (nM) pERK (cell with FBS 10%), AsPC-1 cells, 10% fetal bovine serum, 2 hours, ratio of p-Erk vs total Erk
[5] = read-out: IC50 (nM) pERK (cell with FBS 10%), AsPC-1 cells, 10% fetal bovine serum, 2 hours, ratio of p-Erk vs total Erk

Compound | IC50 ([1]; Homo sapiens, ASPC1, 2 h) [nM] | IC50 [2] [nM] | further results
CC[C@@H]1N[C@H]2CC[C@@H]1N(c1nc(OCC3(CN(C)C)CC3)nc3c(F)c(-c4cc(O)cc5ccccc45)c(Cl)cc13)C2 [Example 40, 4-(6-chloro-2-((1-((dimethylamino)methyl)cyclopropyl)methoxy)-4-((1S,4S,6S)-6-ethyl-2,5-diazabicyclo[2.2.2]octan-2-yl)-8-fluoroquinazolin-7-yl)naphthalen-2-ol] | 22000 | 689 | 
CN(C)CC1(COc2nc(N3C[C@H]4CC[C@@H](C3)N4)c3cc(Cl)c(-c4c(C(F)(F)F)ccc5[nH]ncc45)c(F)c3n2)CC1 [Example 63, 1-(1-(((4-((1R,5S)-3,8-diazabicyclo [3.2.1]octan-3-yl)-6-chloro-8-fluoro-7-(5-(trifluoromethyl)-1H-indazol-4-yl)quinazolin-2-yl)oxy)methyl)cyclopropyl)-N,N-dimethylmethanamine] | 26800 | 1590 | 
CC1CC2CN(c3nc(OCC4(CN(C)C)CC4)nc4c(F)c(-c5cc(O)cc6ccccc56)c(F)cc34)CC1N2 (stereo not shown) [Example 29, 4-(2-((1-((dimethyl-amino)methyl)cyclopro-pyl)methoxy)-6,8-difluoro-4-(6-methyl-3,8-diazabicyclo[3.2.1]oc-tan-3-yl)quinazolin-7-yl)naphthalen-2-ol] | 11600 | 705 | 
C[C@]12CC[C@H](CN(c3nc(OCC4(CN5CCOCC5)CC4)nc4c(F)c(-c5c(F)cc(F)c6ccc(N)nc56)c(Cl)cc34)C1)N2 (single isomer, unassigned) [Ex. 91b] |  | 1020 | IC50 [1]: 4160 nM
CN(C)CC1(COc2nc(N3CC4CC(O)C(C3)N4)c3cc(Cl)c(-c4cc(O)cc5ccccc45)c(F)c3n2)CC1 (single isomer, unassigned) [Example 19b] |  | 1790 | IC50 [1]: 50800 nM
CN(C)CC1(COc2nc(N3CC4CC(O)C(C3)N4)c3cc(Cl)c(-c4cc(O)cc5ccccc45)c(F)c3n2)CC1 (single isomer, unassigned) [Example 19a] | 50800 | 1180 | 
CC[C@H]1[C@@H]2CC[C@@H](CN2)N1c1nc(OCC2(CN(C)C)CC2)nc2c(F)c(-c3cc(O)cc4ccccc34)c(F)cc12 [Example 9, 4-(2-((1-((dimethylamino)methyl)cyclopropyl)methoxy)-4-((1S,3S,4S)-3-ethyl-2,5-diazabicyclo[2.2.2]octan-2-yl)-6,8-difluoroquinazolin-7-yl)naphthalen-2-ol] | 13600 | 1330 | 
COCC12CCC(CN(c3nc(OCC4(CN(C)C)CC4)nc4c(F)c(-c5cc(O)cc6ccccc56)c(Cl)cc34)C1)N2 (stereo not shown) [Example 37, 4-(6-chloro-2-((1-((dimethylamino)meth-yl)cyclopro-pyl)methoxy)-8-fluoro-4-(1-(methoxy-methyl)-3,8-diazabicyclo[3.2.1]oc-tan-3-yl)quinazolin-7-yl)naphthalen-2-ol] | 16700 | 571 | 
CN(C)CC1(COc2nc(N3C[C@H]4N[C@@](C)(C[C@@H]4O)C3)c3cc(Cl)c(-c4cc(O)cc5ccccc45)c(F)c3n2)CC1 [Example 44, (1S,5R,6S)-3-(6-chloro-2-((1-((dimethylamino)methyl)cyclopropyl)methoxy)-8-fluoro-7-(3-hydroxynaphthalen-1-yl)quinazolin-4-yl)-1-methyl-3,8-diazabicyclo [3.2.1]octan-6-ol] | 13900 | 1160 | 
CN(C)CC1(COc2nc(N3CC4CC(O)C(C3)N4)c3cc(Cl)c(-c4cc(O)cc5ccccc45)c(F)c3n2)CC1 (single isomer, unassigned) [Example 23, 3-(6-chloro-2-((1-((dimethyalmino)meth-yl)cyclopropyl)meth-oxy)-8-fluoro-7-(3-hydroxynaphthalen-1-yl)quinazolin-4-yl)-3,8-diazabicyclo[3.2.1]oc-tan-6-ol] |  | 4280 | IC50 [1]: 44800 nM
Oc1cc(-c2c(F)cc3c(N4CC5CC(F)C(C4)N5)nc(OCC4(CN5CCOCC5)CC4)nc3c2F)c2ccccc2c1 (single isomer, unassigned) [Ex. 3a, 4-(6,8-difluoro-4-(6-fluoro-3,8-diazabicyclo[3.2.1]octan-3-yl)-2-((1-(morpholinomethyl)cyclopropyl)methoxy)quinazolin-7-yl)naphthalen-2-ol] |  | 506 | IC50 [1]: 3610 nM
C[C@]12CC[C@H](CN(c3nc(OC[C@@]45CCCN4C[C@H](F)C5)nc4c(F)c(-c5cc(O)cc(Cl)c5Cl)c(F)cc34)C1)N2 (single isomer, unassigned) [Ex. 129a, HCl] |  | 17.7 | IC50 [3, 4]: 2810 nM
CN(C)C[C@@]1(COc2nc(N3C[C@H]4CC[C@@](C)(C3)N4)c3cc(C#N)c(-c4cc(O)cc5ccccc45)c(F)c3n2)CC1(F)F [136b, 2-(((R)-1-((dimethylamino)methyl)-2,2-difluorocyclopropyl)methoxy)-8-fluoro-7-(3-hydroxynaphthalen-1-yl)-4-((1S,5R)-1-methyl-3,8-diazabicyclo[3.2.]octan-3-yl)quinazoline-6-carbonitrile] |  | 32.4 | IC50 [3, 5]: 2380 nM
C#Cc1cccc2nc(N)nc(-c3c(F)cc4c(N5C[C@H]6CC[C@@H](C5)N6)nc(OC[C@@]56CCCN5C[C@H](F)C6)nc4c3F)c12 [compound 235, 4′-((1R,5S)-3,8-diazabicyclo[3.2.1]octan-3-yl)-5-ethynyl-6′,8′-difluoro-2′-(((2R,7aS)-2-fluorotetrahydro-1H-pyrrolizin-7a(5H)-yl)methoxy)-[4,7′-biquinazolin]-2-amine] |  | 91.7 | IC50 [3, 4]: 910 nM
CN1CCC[C@H]1COc1nc(N2C[C@H]3CC[C@@](C)(C2)N3)c2cc(F)c(-c3cc(O)cc4cccc(Cl)c34)c(F)c2n1 [Ex. 185, 5-chloro-4-(6,8-difluoro-4-((1S,5R)-1-methyl-3,8-diaza-bicyclo-[3.2.1]octan-3-yl)-2-(((S)-1-methyl-pyrrolidin-2-yl)meth-oxy)quinazolin-7-yl)-naphthalen-2-ol] |  | 732 | IC50 [3, 4]: 7040 nM
C#Cc1cccc2cccc(-c3c(F)cc4c(N5CC6(C)CCC(C)(C5)N6)nc(OC[C@@]56CCCN5C[C@H](F)C6)nc4c3F)c12 (single isomer, unassigned) [Ex. 190a, TFA] |  | 2510 | IC50 ([3]; read-out: IC50 (nM) pERK (cell with FBS 10%), AsPC-1 cells, 10% fetal bovine serum, 2 hours, ratio of p-Erk vs total Erk, TFA): 30000 nM
C[C@]12CCC(CN(c3nc(OC[C@H]4CC[C@@]5(CO)CCCN45)nc4c(F)c(-c5cc(O)cc6cccc(Cl)c56)c(F)cc34)C1)N2 [243a, 5-chloro-4-(6,8-difluoro-2-(((38,7aS)-7a-(hydroxymethyl)hexahydro-1H-pyrrolizin-3-yl)methoxy)-4-((1S,5R)-1-methyl-3,8-diazabicyclo[3.2.1]octan-3-yl)quinazolin-7-yl)naphthalen-2-ol] |  | 346 | IC50 [3, 4]: 30000 nM
C#Cc1cccc2cc(O)c(Cl)c(-c3c(F)cc4c(N5CC6CC[C@@](C)(C5)N6)nc(OC[C@@]56CCCN5C[C@H](F)C6)nc4c3F)c12 (single isomer, unassigned) [Ex. 143a] |  | 0.86 | IC50 [3, 5]: 53.5 nM
Nc1cc(F)c(C(F)(F)F)c(-c2c(F)cc3c(N4CC5CCC(C4)N5)nc(OC[C@@]45CCCN4C[C@H](F)C5)nc3c2F)c1F (single isomer, unassigned) [Ex. 145b] |  | 14.1 | IC50 [3, 5]: 358 nM
N#Cc1c(N)sc2c(F)ccc(-c3c(F)cc4c(N5C[C@H]6CC[C@@H](C5)N6)nc(OC[C@@]56CCCN5C[C@H](F)C6)nc4c3F)c12 (single isomer, unassigned) [Ex. 144b] |  | 20 | IC50 [3, 5]: 392 nM
